Results: PubChem BioAssay (NCI)
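Tested at 5 concentrations; 48 h exposure; 96-well plates; endpoints linearly interpolated, else capped at highest concentration. GI50 = concentration required for 50% inhibition of growth. TGI denotes the concentration required for complete inhibition of growth.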

What was measured:
Test in all cases: growth of human tumour cells (NCI), 48 h
U251 CNS = test system: U251 CNS
HS 578T breast = test system: HS 578T breast
NCI-H226 lung = test system: NCI-H226 lung
DU-145 prostate = test system: DU-145 prostate
MCF7 breast = test system: MCF7 breast
A498 renal = test system: A498 renal
NCI-H522 lung = test system: NCI-H522 lung
SK-MEL-5 melanoma = test system: SK-MEL-5 melanoma
MDA-MB-435 = test system: MDA-MB-435
CCRF-CEM leukemia = test system: CCRF-CEM leukemia
UO-31 renal = test system: UO-31 renal
SW-620 colon = test system: SW-620 colon
UACC-257 melanoma = test system: UACC-257 melanoma
A549 NSCLC = test system: A549 NSCLC
SN12C renal = test system: SN12C renal
MDA-MB-231 breast = test system: MDA-MB-231 breast
HCT-15 colon = test system: HCT-15 colon
NCI/ADR-RES ovarian = test system: NCI/ADR-RES ovarian
T-47D breast = test system: T-47D breast
SF-268 CNS = test system: SF-268 CNS
HCC-2998 colon = test system: HCC-2998 colon
SNB-19 CNS = test system: SNB-19 CNS
HOP-62 NSCLC = test system: HOP-62 NSCLC
SK-MEL-2 melanoma = test system: SK-MEL-2 melanoma
MALME-3M melanoma = test system: MALME-3M melanoma
SK-MEL-28 melanoma = test system: SK-MEL-28 melanoma
HOP-92 NSCLC = test system: HOP-92 NSCLC
PC-3 prostate = test system: PC-3 prostate
M14 melanoma = test system: M14 melanoma
RPMI-8226 leukemia = test system: RPMI-8226 leukemia
786-0 renal = test system: 786-0 renal
SNB-75 CNS = test system: SNB-75 CNS
HL-60(TB) leukemia = test system: HL-60(TB) leukemia
UACC-62 melanoma = test system: UACC-62 melanoma
BT-549 breast = test system: BT-549 breast
K-562 leukemia = test system: K-562 leukemia
COLO 205 colon = test system: COLO 205 colon
ACHN renal = test system: ACHN renal
MOLT-4 leukemia = test system: MOLT-4 leukemia
EKVX NSCLC = test system: EKVX NSCLC
NCI-H460 lung = test system: NCI-H460 lung
RXF 393 renal = test system: RXF 393 renal
KM12 colon = test system: KM12 colon
SF-539 CNS = test system: SF-539 CNS
HT29 colon = test system: HT29 colon
NCI-H23 lung = test system: NCI-H23 lung
SF-295 CNS = test system: SF-295 CNS
HCT-116 colon = test system: HCT-116 colon
IGROV1 ovarian = test system: IGROV1 ovarian
OVCAR-5 ovarian = test system: OVCAR-5 ovarian
SR leukemia = test system: SR leukemia
LOX IMVI melanoma = test system: LOX IMVI melanoma
CAKI-1 renal = test system: CAKI-1 renal
TK-10 renal = test system: TK-10 renal
OVCAR-4 ovarian = test system: OVCAR-4 ovarian
SK-OV-3 ovarian = test system: SK-OV-3 ovarian
OVCAR-8 ovarian = test system: OVCAR-8 ovarian
OVCAR-3 ovarian = test system: OVCAR-3 ovarian

`CCCN(CCC)c1ccc(CO)c(Cl)c1` gave a GI50 (U251 CNS) of 10.3 µM, a TGI (U251 CNS) of over 100 µM and a GI50 (HS 578T breast) of 25 µM. For the same molecule, the TGI (HS 578T breast) was over 91.9 µM, the GI50 (NCI-H226 lung) was 0.166 µM and the TGI (NCI-H226 lung) was 0.419 µM. The GI50 (DU-145 prostate) was 52 µM, the TGI (DU-145 prostate) was over 100 µM and the GI50 (MCF7 breast) was 1.23 µM. For the same molecule, the TGI (MCF7 breast) was 33 µM, the GI50 (A498 renal) was 0.117 µM and the TGI (A498 renal) was 0.253 µM. For the same molecule, the GI50 (NCI-H522 lung) was 16.4 µM, the TGI (NCI-H522 lung) was 38.9 µM and the GI50 (SK-MEL-5 melanoma) was 12.9 µM. For the same molecule, the TGI (SK-MEL-5 melanoma) was 27.3 µM, the GI50 (MDA-MB-435) was 37.1 µM and the TGI (MDA-MB-435) was over 100 µM. It also gave a GI50 (CCRF-CEM leukemia) of 17.4 µM, a TGI (CCRF-CEM leukemia) of 51.7 µM and a GI50 (UO-31 renal) of 35.4 µM. For the same molecule, the TGI (UO-31 renal) was over 100 µM, the GI50 (SW-620 colon) was 6.41 µM and the TGI (SW-620 colon) was over 100 µM. For the same molecule, the GI50 (UACC-257 melanoma) was 0.352 µM, the TGI (UACC-257 melanoma) was 1.49 µM and the GI50 (A549 NSCLC) was 7.2 µM. It also gave a TGI (A549 NSCLC) of over 63 µM, a GI50 (SN12C renal) of 39.2 µM and a TGI (SN12C renal) of over 100 µM. The GI50 (MDA-MB-231 breast) was 31.6 µM, the TGI (MDA-MB-231 breast) was over 68.4 µM and the GI50 (HCT-15 colon) was 20.4 µM. The TGI (HCT-15 colon) was over 80.9 µM, the GI50 (NCI/ADR-RES ovarian) was 23.6 µM and the TGI (NCI/ADR-RES ovarian) was over 89.7 µM. The GI50 (T-47D breast) was 0.459 µM, the TGI (T-47D breast) was 2.91 µM and the GI50 (SF-268 CNS) was 47.3 µM. The TGI (SF-268 CNS) was over 100 µM, the GI50 (HCC-2998 colon) was 13.5 µM and the TGI (HCC-2998 colon) was 48.2 µM. It also gave a GI50 (SNB-19 CNS) of over 63.8 µM, a TGI (SNB-19 CNS) of over 100 µM and a GI50 (HOP-62 NSCLC) of 8.25 µM. It also gave a TGI (HOP-62 NSCLC) of over 100 µM, a GI50 (SK-MEL-2 melanoma) of 9.47 µM and a TGI (SK-MEL-2 melanoma) of 33.9 µM. The GI50 (MALME-3M melanoma) was 29.1 µM, the TGI (MALME-3M melanoma) was over 78.5 µM and the GI50 (SK-MEL-28 melanoma) was 42.5 µM. It also gave a TGI (SK-MEL-28 melanoma) of over 100 µM, a GI50 (HOP-92 NSCLC) of 9.43 µM and a TGI (HOP-92 NSCLC) of 31.2 µM. The GI50 (PC-3 prostate) was 22.8 µM, the TGI (PC-3 prostate) was 89.6 µM and the GI50 (M14 melanoma) was 37.5 µM. The TGI (M14 melanoma) was 97.4 µM, the GI50 (RPMI-8226 leukemia) was 5.93 µM and the TGI (RPMI-8226 leukemia) was 28.9 µM. For the same molecule, the GI50 (786-0 renal) was 16.8 µM, the TGI (786-0 renal) was 45.6 µM and the GI50 (SNB-75 CNS) was 25.8 µM. The TGI (SNB-75 CNS) was over 96.7 µM, the GI50 (HL-60(TB) leukemia) was 19.5 µM and the TGI (HL-60(TB) leukemia) was 44.6 µM. The GI50 (UACC-62 melanoma) was 0.485 µM, the TGI (UACC-62 melanoma) was 4.79 µM and the GI50 (BT-549 breast) was 22 µM. For the same molecule, the TGI (BT-549 breast) was over 60.2 µM, the GI50 (K-562 leukemia) was 6.21 µM and the TGI (K-562 leukemia) was 37.7 µM. The GI50 (COLO 205 colon) was 3.5 µM, the TGI (COLO 205 colon) was 10.1 µM and the GI50 (ACHN renal) was 38.5 µM. For the same molecule, the TGI (ACHN renal) was over 100 µM, the GI50 (MOLT-4 leukemia) was 23.3 µM and the TGI (MOLT-4 leukemia) was 62.6 µM. For the same molecule, the GI50 (EKVX NSCLC) was 18.2 µM, the TGI (EKVX NSCLC) was 59 µM and the GI50 (NCI-H460 lung) was 2.13 µM. For the same molecule, the TGI (NCI-H460 lung) was 32.1 µM, the GI50 (RXF 393 renal) was 7.37 µM and the TGI (RXF 393 renal) was 29.5 µM. The GI50 (KM12 colon) was 35 µM, the TGI (KM12 colon) was over 100 µM and the GI50 (SF-539 CNS) was 40.2 µM. It also gave a TGI (SF-539 CNS) of over 100 µM, a GI50 (HT29 colon) of 9.75 µM and a TGI (HT29 colon) of over 52.4 µM. For the same molecule, the GI50 (NCI-H23 lung) was 23.2 µM, the TGI (NCI-H23 lung) was over 100 µM and the GI50 (SF-295 CNS) was 5.45 µM. The TGI (SF-295 CNS) was over 78.9 µM, the GI50 (HCT-116 colon) was 0.44 µM and the TGI (HCT-116 colon) was 7.88 µM. The GI50 (IGROV1 ovarian) was 0.401 µM, the TGI (IGROV1 ovarian) was 2.41 µM and the GI50 (OVCAR-5 ovarian) was 0.257 µM. For the same molecule, the TGI (OVCAR-5 ovarian) was 0.718 µM, the GI50 (SR leukemia) was 19.3 µM and the TGI (SR leukemia) was 45.9 µM. For the same molecule, the GI50 (LOX IMVI melanoma) was 30.4 µM, the TGI (LOX IMVI melanoma) was over 100 µM and the GI50 (CAKI-1 renal) was 5.77 µM. The TGI (CAKI-1 renal) was 50.6 µM, the GI50 (TK-10 renal) was 0.223 µM and the TGI (TK-10 renal) was 0.663 µM. The GI50 (OVCAR-4 ovarian) was 1.21 µM, the TGI (OVCAR-4 ovarian) was 7.79 µM and the GI50 (SK-OV-3 ovarian) was 31.3 µM. The TGI (SK-OV-3 ovarian) was over 100 µM, the GI50 (OVCAR-8 ovarian) was 34.9 µM and the TGI (OVCAR-8 ovarian) was over 100 µM. For the same molecule, the GI50 (OVCAR-3 ovarian) was 1.62 µM and the TGI (OVCAR-3 ovarian) was 5.07 µM.
